Reference: patent publication US8871738B2, “Fused bicyclic oxazolidinone CETP inhibitor” (Merck Sharp & Dohme Corp., priority 2011, dated 2014)
Where two headings read alike, the source gives them in different places.

Biological target: endogenous CETP from serum (Homo sapiens (Human), UniProt P11597)
Assay: RTA assay in 95% human serum (CETP-catalyzed CE and TG transfer, endogenous CETP)
Type: biochemical
[1] = RTA assay in 95% human serum, read-out: IC50
[2] = RTA assay, 95% human serum, read-out: RTA (95% HS)

Sequence of endogenous CETP from serum (P11597 18-493 limits assumed): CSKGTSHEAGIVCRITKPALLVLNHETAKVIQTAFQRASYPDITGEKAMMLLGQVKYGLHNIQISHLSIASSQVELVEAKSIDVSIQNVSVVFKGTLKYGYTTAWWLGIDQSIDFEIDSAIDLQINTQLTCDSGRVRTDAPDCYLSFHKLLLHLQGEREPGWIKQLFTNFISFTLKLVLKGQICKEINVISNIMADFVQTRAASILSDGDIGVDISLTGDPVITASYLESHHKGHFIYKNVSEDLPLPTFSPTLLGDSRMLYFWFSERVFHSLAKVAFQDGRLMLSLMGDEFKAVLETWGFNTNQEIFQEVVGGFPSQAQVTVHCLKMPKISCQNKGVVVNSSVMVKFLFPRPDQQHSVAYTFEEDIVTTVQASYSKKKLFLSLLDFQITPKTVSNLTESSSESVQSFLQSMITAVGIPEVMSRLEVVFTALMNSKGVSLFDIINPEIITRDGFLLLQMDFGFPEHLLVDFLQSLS

Compound | IC50 [1] | IC50 [2]
COc1cc(F)c(C(C)C)cc1-c1cnc(N(C)C)cc1[C@@H]1C=C[C@H]2[C@@H](c3cc(C(F)(F)F)cc(C(F)(F)F)c3)OC(=O)N12 [Example 49, (1R,5S,7aS)-1-[3,5-bis(trifluoromethyl)phenyl]-5-{2-(dimethylamino)-5-[4-fluoro-2-methoxy-5-(1-methylethyl)phenyl]pyridin-4-yl}-5,7a-dihydro-1H-pyrrolo[1,2-c][1,3]oxazol-3-one] | 438 nM | –
COc1ccc(-c2ccc(C(=O)O)cc2C)cc1-c1ncc(C(F)(F)F)cc1[C@@H]1C=C[C@H]2[C@@H](c3cc(C(F)(F)F)cc(C(F)(F)F)c3)OC(=O)N12 [Example 68, 3′-(3-((1R,5S,7aS)-1-(3,5-bis(trifluuoromethyl)phenyl)-3-oxo-1,3,5,7a-tetrahydropyrrolo[1,2-c]oxazol-5-yl)-5-(trifluoromethyl)pyridin-2-yl)-4′-methoxy-2-methyl-[1,1′-biphenyl]-4-carboxylic acid] | 424 nM | –
COc1ccc(Cl)cc1-c1ccc(C(F)(F)F)cc1[C@@H]1CC[C@H]2[C@@H](c3cc(C(F)(F)F)cc(C(F)(F)F)c3)OC(=O)N12 [Example 14, (1R,5S,7aS)-1-[3,5-bis(trifluoromethyl)phenyl]-5-[5′-chloro-2′-methoxy-4-(trifluoromethyl)biphenyl-2-yl]tetrahydro-1H-pyrrolo[1,2-c][1,3]oxazol-3-one] | 233 nM | –
COc1ccc(C)cc1-c1ccc(C(F)(F)F)cc1[C@@H]1CC[C@H]2[C@@H](c3cc(C(F)(F)F)cc(C(F)(F)F)c3)OC(=O)N12 [Example 13, (1R,5S,7aS)-1-[3,5-bis(trifluoromethyl)phenyl]-5-[2′-methoxy-5′-methyl-4-(trifluoromethyl)biphenyl-2-yl]tetrahydro-1H-pyrrolo[1,2-c][1,3]oxazol-3-one] | 263 nM | –
COc1ccc(CCc2nnc(N)o2)cc1-c1ccc(C(F)(F)F)cc1[C@@H]1CCC[C@H]2[C@@H](c3cc(C(F)(F)F)cc(C(F)(F)F)c3)OC(=O)N12 [Example 82, (1R,5S,8aS)-5-{5′-[2-(5-amino-1,3,4-oxadiazol-2-yl)ethyl]-2′-methoxy-4-(trifluoromethyl)biphenyl-2-yl}-1-[3,5-bis(trifluoromethyl)phenyl]hexahydro[1,3]oxazolo[3,4-a]pyridin-3-one] | – | 1320 nM
COc1ccc(CCc2n[nH]c(=O)o2)cc1-c1ccc(C(F)(F)F)cc1[C@@H]1CCC[C@H]2[C@@H](c3cc(C(F)(F)F)cc(C(F)(F)F)c3)OC(=O)N12 [Example 80, (1R,5S,8aS)-1-[3,5-bis(trifluoromethyl)phenyl]-5-{2′-methoxy-5′-[2-(5-oxo-4,5-dihydro-1,3,4-oxadiazol-2-yl)ethyl]-4-(trifluoromethyl)biphenyl-2-yl}hexahydro[1,3]oxazolo[3,4-a]pyridin-3-one] | – | 942 nM
COc1cc(F)c(C(C)C)cc1-c1ccc(C(F)(F)F)cc1[C@@H]1CCC[C@H]2[C@@H](c3cc(C(F)(F)F)cc(C(F)(F)F)c3)OC(=O)N12 [Example 43, (1R,5S,8aS)-1-[3,5-bis(trifluoromethyl)phenyl]-5-[4′-fluoro-2′-methoxy-5′-(1-methylethyl)-4-(trifluoromethyl)biphenyl-2-yl]hexahydro[1,3]oxazolo[3,4-a]pyridin-3-one] | 1210 nM | –
O=C1O[C@H](c2cc(C(F)(F)F)cc(C(F)(F)F)c2)[C@@H]2CC[C@@H](c3cc(C(F)(F)F)ccc3-c3ccsc3)N12 [Example 18, (1R,5S,7aS)-1-[3,5-bis(trifluoromethyl)phenyl]-5-[2-thiophen-3-yl-5-(trifluoromethyl)phenyl]tetrahydro-1H-pyrrolo[1,2-c][1,3]oxazol-3-one] | 103 nM | –
COc1ncc(-c2ccc(C(=O)O)cc2C)cc1-c1ccc(C(F)(F)F)cc1[C@@H]1C=C[C@H]2[C@@H](c3cc(C(F)(F)F)cc(C(F)(F)F)c3)OC(=O)N12 [Example 67, 4-(5-(2-((1R,5S,7aS)-1-(3,5-bis(trifluoromethyl)phenyl)-3-oxo-1,3,5,7a-tetrahydropyrrolo[1,2-c]oxazol-5-yl)-4-(trifluoromethyl)phenyl)-6-methoxypyridin-3-yl)-3-methylbenzoic acid] | 199 nM | –
COc1ncc(C(C)C)cc1-c1ccc(C(F)(F)F)cc1[C@@H]1CC[C@H]2[C@@H](c3cc(C(F)(F)F)cc(C(F)(F)F)c3)OC(=O)N12 [Example 45, (1R,5S,7aS)-1-[3,5-bis(trifluoromethyl)phenyl]-5-{2-[2-methoxy-5-(1-methylethyl)pyridin-3-yl]-5-(trifluoromethyl)phenyl}tetrahydro-1H-pyrrolo[1,2-c][1,3]oxazol-3-one] | 44.7 nM | –
COc1cc(F)c(-c2ccc(C(=O)O)cc2C)cc1-c1ccc(C(F)(F)F)cc1[C@@H]1CCC[C@H]2[C@@H](c3cc(C(F)(F)F)cc(C(F)(F)F)c3)OC(=O)N12 [Example 44, 2″-{(1R,5S,8aS)-1-[3,5-bis(trifluoromethyl)phenyl]-3-oxohexahydro[1,3]oxazolo[3,4-a]pyridin-5-yl}-6′-fluoro-4′-methoxy-2-methyl-4″- (trifluoromethyl)-1,1′:3′,1″- terphenyl-4-carboxylic acid] | 718 nM | –
COc1cc(F)c(CCC(=O)O)cc1-c1ccc(C(F)(F)F)cc1[C@@H]1CCC[C@H]2[C@@H](c3cc(C(F)(F)F)cc(C(F)(F)F)c3)OC(=O)N12 [Example 46, 3-[2′-{(1R,5S,8aS)-1-[3,5-bis(trifluoromethyl)phenyl]-3-oxohexahydro[1,3]oxazolo[3,4-a]pyridin-5-yl}-4-fluoro-6-methoxy-4′-(trifluoromethyl)biphenyl-3-yl]propanoic acid] | 1630 nM | –
COc1ncc(-c2c(C)cc(C(=O)O)cc2C)cc1-c1ncc(C(F)(F)F)cc1[C@@H]1CC[C@H]2[C@@H](c3cc(C(F)(F)F)cc(C(F)(F)F)c3)OC(=O)N12 [Example 70, 4-[3-{(1R,5S,7aS)-1-[3,5-bis(trifluoromethyl)phenyl]-3-oxotetrahydro-1H-pyrrolo[1,2-c][1,3]oxazol-5-yl}-2′-methoxy-5-(trifluoromethyl)-2,3′-bipyridin-5′-yl]-3,5-dimethylbenzoic acid] | 751 nM | –
COc1cc(F)c(C(C)C)cc1-c1cnc(N(C)C)nc1[C@@H]1C=C[C@H]2[C@@H](c3cc(C(F)(F)F)cc(C(F)(F)F)c3)OC(=O)N12 [Example 48, (1R,5S,7aS)-1-[3,5-bis(trifluoromethyl)phenyl]-5-{2-(dimethylamino)-5-[4-fluoro-2-methoxy-5-(1-methylethyl)phenyl]pyrimidin-4-yl}-5,7a-dihydro-1H-pyrrolo[1,2-c][1,3]oxazol-3-one] | 695 nM | –
COc1cc(F)c(-c2ccc(C(=O)O)cc2C)cc1-c1ccc(C(F)(F)F)cc1[C@@H]1C=C[C@H]2[C@@H](c3cc(C(F)(F)F)cc(C(F)(F)F)c3)OC(=O)N12 [Example 50, 2″-{(1R,5S,7aS)-1-[3,5-bis(trifluoromethyl)phenyl]-3-oxo-5,7a-dihydro-1H-pyrrolo[1,2-c][1,3]oxazol-5-yl}-6′-fluoro-4′-methoxy-2-methyl-4″- (trifluoromethyl)-1,1′:3′,1″- terphenyl-4-carboxylic acid] | 47.9 nM | –
